Assay results: article PMC9037752, “A Novel Angiotensin I-Converting Enzyme Inhibitory Peptide Derived From Goat Milk Casein Hydrolysate Modulates Angiotensin II-Stimulated Effects on Vascular Smooth Muscle Cells” (Frontiers in Nutrition, 2022)
Ends that are not written are not given here.

Key:
A7r5 cells [1] = test: Real time quantitative RT-PCR of differentially expressed genes; assay type: cell-based, rat; conditions: FPQYLQYPY-treated group vs Ang II-treated group
Protocol: Total RNA was extracted from A7r5 cells using TRIzol reagent, according to the manufacturer's specifications. The information of primer sequences is shown in Supplementary Table 1. RT reactions were performed in a GeneAmp® PCR System 9700 (Applied Biosystems, USA). Then, Real-time PCR was performed using the LightCycler® 480 II Real-time PCR Instrument (Roche, Swiss). The relative expression level was calculated using the 2^−ΔΔCt.

[2] = target: T1, Angiotensin Converting Enzyme from rabbit lung (Oryctolagus cuniculus, UniProt P12822); test: ACE inhibitory activity after in vitro gastrointestinal digest; assay type: biochemical
T1 construct: Angiotensin Converting Enzyme from rabbit lung; purchased Sigma-Aldrich; host or cells: rabbit lung tissue
T1 sequence (P12822 34-1310): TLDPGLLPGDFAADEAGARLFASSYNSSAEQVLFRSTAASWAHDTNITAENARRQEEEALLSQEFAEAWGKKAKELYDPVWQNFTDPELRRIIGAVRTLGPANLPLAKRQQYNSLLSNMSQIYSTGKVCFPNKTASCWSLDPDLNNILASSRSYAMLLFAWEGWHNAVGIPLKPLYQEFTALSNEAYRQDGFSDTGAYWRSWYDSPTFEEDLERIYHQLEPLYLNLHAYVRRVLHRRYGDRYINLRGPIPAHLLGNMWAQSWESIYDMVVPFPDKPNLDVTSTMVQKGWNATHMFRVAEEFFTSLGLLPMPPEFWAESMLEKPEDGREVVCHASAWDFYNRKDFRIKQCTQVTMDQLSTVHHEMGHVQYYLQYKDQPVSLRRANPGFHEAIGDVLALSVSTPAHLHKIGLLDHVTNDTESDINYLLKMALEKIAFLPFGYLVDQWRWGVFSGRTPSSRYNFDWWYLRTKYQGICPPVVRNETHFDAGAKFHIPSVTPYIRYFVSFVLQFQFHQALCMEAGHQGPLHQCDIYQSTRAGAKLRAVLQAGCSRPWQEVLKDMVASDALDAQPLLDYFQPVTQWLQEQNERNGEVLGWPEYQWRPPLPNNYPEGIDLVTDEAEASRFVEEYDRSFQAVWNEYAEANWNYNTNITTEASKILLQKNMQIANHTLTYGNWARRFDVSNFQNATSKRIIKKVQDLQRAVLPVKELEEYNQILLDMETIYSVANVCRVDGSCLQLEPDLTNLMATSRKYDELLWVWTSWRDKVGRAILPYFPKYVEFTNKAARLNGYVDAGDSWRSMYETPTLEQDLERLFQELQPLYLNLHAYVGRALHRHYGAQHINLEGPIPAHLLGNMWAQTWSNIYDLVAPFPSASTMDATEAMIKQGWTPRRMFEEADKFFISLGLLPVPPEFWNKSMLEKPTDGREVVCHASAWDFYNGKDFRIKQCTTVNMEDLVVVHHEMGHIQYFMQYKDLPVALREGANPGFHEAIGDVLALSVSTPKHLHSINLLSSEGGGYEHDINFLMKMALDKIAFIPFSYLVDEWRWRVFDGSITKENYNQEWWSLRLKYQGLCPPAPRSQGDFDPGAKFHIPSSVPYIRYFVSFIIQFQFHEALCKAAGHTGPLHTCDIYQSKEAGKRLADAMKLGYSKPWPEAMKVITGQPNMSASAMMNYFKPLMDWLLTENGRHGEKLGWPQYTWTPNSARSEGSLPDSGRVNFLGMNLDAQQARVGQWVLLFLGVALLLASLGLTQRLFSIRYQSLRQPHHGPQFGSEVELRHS
Protocol: (§1) ACE inhibitory activity was measured using an RP-HPLC method with Hippuryl-His-Leu (HHL) as a substrate, which generated hippuric acid (HA) under enzymatic hydrolysis ([19]). The sample was dissolved in a borax-boric acid buffer containing 0.15 M NaCl (pH = 8.3). Firstly, add 10 μL ACE (0.2 U) to the sample tube and blank tube, respectively. At the same time, add 10 μL of sample to the sample tube, and add 10 μL of buffer and 80 μL of 1 M HCl to the blank tube, then pre-incubate at 37°C for 5 min. The reaction was initiated by adding 30 μL HHL (6.5 mM) and incubated for 60 min at the same temperature until 80 μL 1 M HCl was added to terminate the reaction.
In vitro digestion of the potent purified ACE inhibitory peptide was carried out according to the reported method, with some adjustments ([22], [23]). Peptide (0.4 mL, 1.5 mg mL^−1) was incubated with 2% (w/w) α-amylase, pepsin, or trypsin at 37°C.
In successive digestion tests, the peptide was first dissolved in buffer solution (pH 6.8) to 2 mg mL^−1 and incubated with α-amylase for 5 min. Then the pH was decreased to pH 2 with the addition of 1 M HCl. Subsequently, the gastric digestion was initiated by adding pepsin at an enzyme-substrate ratio of 2:100 (w/w). The reaction was stopped after 2 h by raising the pH to 8.0 with 1 M NaOH, and trypsin was added to the reactor to continue gastrointestinal digestion for 4 h. Last, the reaction mixture was heated for 15 min in boiling water to inactivate the enzyme.

A7r5 cells [3] = test: Transwell cell migration assay of Ang II-stimulated VSMCs; assay type: cell-based, rat; conditions: 48 h, Ang II in lower chamber, crystal violet, absorbance 570 nm
Protocol: A7r5 cells were collected and suspended in DMEM (1% FBS), and then the density was adjusted to 2 × 10^5 cells ml^−1. In each group, cell suspensions with or without FPQYLQYPY were cultured in the upper chamber of a Transwell (8.0 μm, Corning, NY, USA) ([26]), and at the same time, the lower chamber was filled with or without Ang II for 48 h. […] After rinsing with PBS, a cotton swab was used to remove the upper unmigrated cells. The migratory cells were observed and photographed under an inverted microscope. Last, a 33% acetic acid solution was added to quantify the crystal violet, and the absorbance of samples was measured at a wavelength of 570 nm using a microplate reader.

[4] = target: T1, Angiotensin Converting Enzyme from rabbit lung; test: ACE-inhibitory activity assay (RP-HPLC, HHL substrate); assay type: biochemical; conditions: HHL 6.5 mM, ACE 0.2 U, 37°C, 60 min, pH 8.3; HA at 228 nm by RP-HPLC; mean ± SD; sample concentration not given
Protocol: as §1
ACE inhibitory activity (%) was confirmed by monitoring the formation of HA at 228 nm as detected by RP-HPLC on a C18 column (250 × 4.6 mm, 5 μm, Ecosil). The mobile phase was 25% acetonitrile and 75% water with 0.01% trifluoroacetic acid with a flow rate of 1 mL/min. The inhibition activity was calculated using the following equation:
Inhibition activity(%)=A-B-A0/A-A0×100%
Where, A = the HA peak area of the control; B = the HA peak area of the sample; A0 = the HA peak area of control with HCL before pre-incubated.
The inhibitory activity of the hydrolysates or collected fractions was expressed as percentage of ACE inhibition at a given protein concentration ([20]).

[5] = target: T1, Angiotensin Converting Enzyme from rabbit lung; test: Inhibitory kinetics study (Lineweaver-Burk plot); assay type: biochemical; conditions: different HHL and peptide concentrations
Protocol: Briefly, the enzyme activities were measured with different concentrations of the substrate (HHL) and the ACE inhibitory pattern in the presence of the inhibitor was determined with a Lineweaver–Burk plot.

A7r5 cells [6] = test: Wound healing assay of Ang II-stimulated VSMCs; assay type: cell-based, rat; conditions: 100 μg mL^−1, Ang II 1 μM, 24 h, ImageJ
Protocol: Migration of A7r5 cells was evaluated using the wound healing assay ([25]). Three lines were drawn horizontally on the back of each hole on the 6-well plate with a marker. Cells in logarithmic growth phase were evenly seeded into 6-well plates with 2 × 10^5 cells per well, and grown in complete medium until the cells covered the bottom of the plate, then the medium was replaced by quiescing medium for overnight.
Afterwards, a sterile 200 μL spear head was used to quickly delimit at an average equal distance in the vertical direction according to the marking line, and washed with PBS to remove the floating cells. […] The migration distance was analyzed by ImageJ software.

A7r5 cells [7] = test: Cell cytotoxicity test (CCK-8); assay type: cell-based, rat; conditions: 1–200 μg mL^−1, 24 h, CCK-8, P > 0.05
Protocol: The cytotoxic effects of FPQYLQYPY in cell culture were evaluated using the Cell Counting Kit-8. First, A7r5 cells were seeded at 1 × 10^4 cells per well into 96-well plates (Costar, Corning, NY, USA) and cultured in a 5% CO2 incubator at 37°C for 24 h. Then, the medium of each well was replaced by 100 μL of fresh medium with different concentrations of FPQYLQYPY (0, 1, 5, 10, 50, 100, or 200 μg mL^−1). After further incubation for 24 h, 10 μL CCK-8 solution was added to each well. Then, the plate was incubated for another 2 h.

A7r5 cells [8] = conditions: co-treatment 10, 50, 100 μg mL^−1 with Ang II 0.1 μM, 24 h, CCK-8
Protocol: The rat aortic vascular smooth muscle cell line A7r5, was purchased from Cell bank of Chinese Academy of Sciences (Shanghai, China). A7r5 cells between passage 8 and 20 were grown in DMEM supplemented with 10% FBS and antibiotics until they reached confluence. For experiments, the confluent cells were placed in a quiescing medium (DMEM + 1% FBS + antibiotics) ([24]) for 24 h, before treatment with different concentrations of [sequence] and Ang II for different time periods.
Cell proliferation was measured by the Cell Counting Kit-8. A7r5 cells were seeded at 5 × 10^3 cells per well into 96-well plates and grown in DMEM with 10% of FBS for 24 h, then the medium was replaced by quiescing medium overnight. The cells were co-treated with different concentrations of [sequence] (0, 10, 50, 100 μg mL^−1) and Ang II (0.1 μM) for 24 h. The absorbance of samples at a wavelength of 450 nm was measured using a microplate reader. The cell survival rate (%) was determined by the percentage of living cells in the test wells compared to the control wells.

ACE = conditions: peptides <3 kDa from fermented goat milk; cited from earlier work
Text: Among them, VLPVPQKAV ...

[9] = target: T2, Angiotensin Converting Enzyme from rabbit lung (rabbit) (UniProt P12822)
T2 sequence: T1 sequence (P12822 34-1310)

[10] = target: T2, Angiotensin Converting Enzyme from rabbit lung (rabbit); remark: listed apart in the source
[11] = before digestion (inactivated enzyme), mean ± SD

## FPQYLQYPY [FPQYLQYPY, also synthesized]
A7r5 cells [1]
  Cox5b mRNA expression: downregulated
  Efna4 mRNA expression: downregulated
  Igf1r mRNA expression: downregulated
  Itga3 mRNA expression: downregulated
  Myl4 mRNA expression: upregulated
  Plcb3 mRNA expression: downregulated
  Shc4 mRNA expression: upregulated
  Taok3 mRNA expression: downregulated
  Tgfb1 mRNA expression: upregulated
[2]; 2% (w/w) α-amylase, pH 6.8, 5 min, 37°C, mean ± SD
  ACE inhibitory (%), oral digestion (α-Amylase), Digested: 57.95 ± 0.22%
[2]; [11]
  ACE inhibitory (%), gastric digestion (Pepsin), Original: 54.12 ± 1.56%
  ACE inhibitory (%), intestinal digestion (Trypsin), Original: 49.86 ± 1.68%
  ACE inhibitory (%), oral digestion (α-Amylase), Original: 53.47 ± 7.32%
[2]; pepsin 2:100 (w/w), pH 2, 2 h, 37°C, mean ± SD
  ACE inhibitory (%), gastric digestion (Pepsin), Digested: 56.41 ± 1.91%
[2]; trypsin 2% (w/w), pH 8.0, 4 h, 37°C, mean ± SD
  ACE inhibitory (%), intestinal digestion (Trypsin), Digested: 45.76 ± 0.42%
[2]; α-amylase, pepsin, trypsin, 37°C, read-out ACE inhibition
  Change of ACE inhibitory activity after incubation with the digestive enzymes: no significant difference
A7r5 cells [3]
  Cell migration in Transwell experiment: the decrease in the level of cell migration was noteworthy
[4]
  ACE inhibition rate: 71.19 ± 0.71%
[5]
  Inhibition pattern against ACE: non-competitive
A7r5 cells [6]
  Distance of the wound healing area (migration): restore the distance of the wound healing area to the level of the control group
A7r5 cells [7]
  Cytotoxic effect on A7r5 cells: no obvious cytotoxic effect
A7r5 cells [8]
  Proliferation of Ang II-stimulated VSMCs: significantly decreased the percentage of proliferating cells

## VLPVPQKAVPQ
ACE
  ACE-inhibitory activity: good ACE-inhibitory activity

## VLPVPQKVVPQ
ACE
  ACE-inhibitory activity: good ACE-inhibitory activity

## FPQYLQYPY [ACE-inhibitory peptide Phe-Pro-Gln-Tyr-Leu-Gln-Tyr-Pro-Tyr (…)]
[9]
  ACE-inhibitory ability (%) of the purified fraction F3 (HHL substrate, hippuric acid by RP-HPLC; concentration not given): 71.2%
[10]
  ACE inhibitory (%), undigested peptide ('Original') of the gastric digestion step (pepsin): 54.1%
  ACE inhibitory (%), undigested peptide ('Original') of the intestinal digestion step (trypsin): 49.9%
  ACE inhibitory (%), undigested peptide ('Original') of the oral digestion step (α-amylase): 53.5%
